{"source": "patent US11052086B2", "about": "“2-anilinopyrimidine derivatives as therapeutic agents for treatment of brain cancers” (Beta Pharma, Inc., priority 2016, dated 2021)", "key": {"NCI-H1975-Luc cells": {"system": "NCI-H1975-Luc cells", "test": "Intracranially implanted NCI-H1975-Luc tumor efficacy study in mice (BLI and survival)", "type": "in vivo", "protocol": "N-(2-(2-(Dimethylamino)ethoxy)-4-methoxy-5-((4-(1-methyl-1H-indol-3-yl)pyrimidin-2-yl)amino)phenyl)acrylamide methanesulfonate (1⋅Ms; C27H30N6O3.1.06 CH3SO3H. MW=486.58, FW=588.45, purity=100%) was formulated in a vehicle of 1% polysorbate 80 in water. The complete vehicle was added to the pre-weighed compound to achieve a 5 mg/mL stock solution, suitable for treatment of the 50 mg/kg dose level. The mixture was vortexed for approximately one minute resulting in a light yellow solution with a pH value of 7. The dosing solution was prepared fresh daily.\nFemale Envigo Nude mice (Hsd:Athymic Nude-Foxn1^nu) were used. They were 6-7 weeks old on Day 1 of the experiment. The animals were fed irradiated Harlan 2918.15 Rodent Diet and water ad libitum. Animals were housed in static cages with Bed-O'Cobs™ bedding inside Biobubble® Clean Rooms that provide H. E. P. A filtered air into the bubble environment at 100 complete air changes per hour. All treatments, body weight determinations, and tumor measurements were carried out in the bubble environment. The environment was controlled to a temperature range of 70±2 OF and a humidity range of 30-70%.\nNCI-H1975-Luc cells were obtained from Clovis. They were grown in RPMI 1640 medium which was modified with 1 mM Na pyruvate+2 mM L-glutamine+10 mM HEPES+2.5 g/L glucose+5 ug/mL blasticidin and supplemented with 10% non-heat-inactivated Fetal Bovine Serum (FBS) and 1% 100× Penicillin/Streptomycin/L-Glutamine (PSG). The growth environment was maintained in an incubator with a 5% CO2 atmosphere at 37° C. When expansion was complete, the cells (passage 4) were trypsinized using 0.25% trypsin-EDTA solution. Following cell detachment, the trypsin was inactivated by dilution with complete growth medium and any clumps of cells were separated by pipetting. The cells were centrifuged at 200 ref for 8 minutes at 4° C. the supernatant was aspirated, and the pellet was re-suspended in cold Dulbecco's Phosphate Buffered Saline (DPBS) by pipetting. An aliquot of the homogeneous cell suspension was diluted in a trypan blue solution and counted using a Luna automated cell counter to determine a pre-implantation cell viability. The cell suspension was centrifuged at 200 ref for 8 minutes at 4° C. The supernatant was aspirated and the cell pellet was re-suspended in cold serum-free medium to generate a final concentration of 1.00E+08 trypan-excluding cells/mL. The cell suspension was maintained on wet ice during implantation. Following implantation, an aliquot of the remaining cells was diluted with a trypan blue solution and counted to determine the post-implantation cell viability.\nTest mice were implanted intracranially on Day 0 with 1.00E+06 cells per 10 μL as per the protocol (Appendix 1). For aseptic surgical implantation, mice were injected with 0.2 mg/kg buprenorphine and anesthetized using 2% isoflurane in air. The mice were then secured in a stereotaxic frame (ASI instruments, Inc.) using non-rupture ear bars. Ocular ointment was applied to the eyes of the mice to prevent drying during surgery. A re-circulating 37° C. water heated pad was used to maintain the animal's body temperature during the implantation procedure. Once in the stereotaxic frame, the cranium was swabbed with alternating chlorhexidine solution and 70% ethanol-saturated swabs to disinfect the skin surface and prepare for the incision. A 1 cm longitudinal incision was made centrally over bregma of the cranium using a #15 BD scalpel blade. The incision was retracted using small, serrated serrefines. The thin layer of connective tissue covering the surface of the skull was removed using dry cotton swabs under light pressure. Bleeding vessels were cauterized to prevent blood loss. A 0.9 mm drill bit was then centered over bregma, moved 2 mm right lateral, 1 mm anterior to the coronal suture and lowered to score the surface of the skull using the stereotaxic electrode manipulator arm. […]"}, "[1]": {"test": "Pharmacokinetics in male SD rats dosed PO (plasma and brain)", "type": "in vivo, rat", "settings": "male SD rats PO 5 mg/kg; for Cmax: 0.5% methylcellulose vehicle; for MRT inf: read-out: MRT0-inf; for MRT last: read-out: MRT0-last"}, "[2]": {"system": "kinase domain of the T790M double mutant", "test": "Inhibition of EGFR T790M double mutant kinase domain", "type": "biochemical", "settings": "in addition to the activating mutations"}, "[3]": {"settings": "50 mg/kg, PO, QD×14 (Days 5-18)"}}, "note": "Like-named read-outs stand apart in the source and are kept apart here.", "data": [{"molecule": "C=CC(=O)Nc1cc(Nc2nccc(-c3cn(C)c4ccccc34)n2)c(OC)cc1OCCN(C)C", "note": "[1⋅Ms, N-(2-(2-(Dimethylamino)ethoxy)-4-methoxy-5-((4-(1-methyl-1H-indol-3-yl)pyrimidin-2-yl)amino)phenyl)acrylamide methanesulfonate]", "values": [{"measurement": "increase in lifespan", "setting": "NCI-H1975-Luc cells; [3]", "value": 15, "unit": "days"}, {"measurement": "BLI derived Day 13 % T/C", "setting": "NCI-H1975-Luc cells; 50 mg/kg, PO, QD×14 (Days 5-18), median BLI signal treated/control ×100, P<0.05", "value": 1, "unit": "%"}, {"measurement": "% ILS (life-span increase vs. vehicle)", "setting": "NCI-H1975-Luc cells; 50 mg/kg, PO, QD×14 (Days 5-18), methanesulfonate", "value": 107, "unit": "%"}, {"measurement": "median lifespan", "setting": "NCI-H1975-Luc cells; 50 mg/kg, PO, QD×14 (Days 5-18), p<0.001", "value": 29.0, "unit": "days"}, {"measurement": "tolerability of treatment", "setting": "NCI-H1975-Luc cells; 50 mg/kg, PO, QD×14 in nude mice", "value": "well-tolerated"}, {"measurement": "animals with complete regressions", "setting": "NCI-H1975-Luc cells; By Day 18, 50 mg/kg PO QD×14, CR = BLI below 2.0E+05 photons/sec", "value": "none"}, {"measurement": "animals with partial tumor regressions", "setting": "NCI-H1975-Luc cells; By Day 18, 50 mg/kg PO QD×14, PR = ≥50% decrease in tumor BLI signal", "value": 100, "unit": "%"}, {"measurement": "AUC0-inf", "setting": "[1]; Brain", "value": 5085, "unit": "ng·h/g"}, {"measurement": "AUC0-last", "setting": "[1]; Brain", "value": 5047, "unit": "ng·h/g"}, {"measurement": "AUCExtra", "setting": "[1]; Brain", "value": 0.746, "unit": "%"}, {"measurement": "AUMCExtra", "setting": "[1]; Brain", "value": 2.57, "unit": "%"}, {"measurement": "Tlast", "setting": "[1]; Brain", "value": 18.0, "unit": "h"}, {"measurement": "AUCExtra", "setting": "[1]; Plasma", "value": 0.593, "unit": "%"}, {"measurement": "AUMCExtra", "setting": "[1]; Plasma", "value": 2.42, "unit": "%"}, {"measurement": "Tlast", "setting": "[1]; Plasma", "value": 18.0, "unit": "h"}, {"measurement": "Kp", "setting": "[1]; rat, Brain (vs plasma), read-out: AUC Ratio", "value": 9.44}, {"measurement": "Tmax", "setting": "[1]; rat, Brain", "value": 2, "unit": "h"}, {"measurement": "half-life", "setting": "[1]; rat, Brain", "value": 2.01, "unit": "h"}, {"measurement": "Cmax", "setting": "[1]; rat, Brain", "value": 606, "unit": "ng/g"}, {"measurement": "MRT inf", "setting": "[1]; rat, Brain", "value": 6.07, "unit": "h"}, {"measurement": "MRT last", "setting": "[1]; rat, Brain", "value": 5.95, "unit": "h"}, {"measurement": "AUC(0-t)", "setting": "[1]; rat, Plasma", "value": 535, "unit": "ng·h/mL"}, {"measurement": "Tmax", "setting": "[1]; rat, Plasma", "value": 2, "unit": "h"}, {"measurement": "half-life", "setting": "[1]; rat, Plasma", "value": 1.97, "unit": "h"}, {"measurement": "Cmax", "setting": "[1]; rat, Plasma", "value": 96.3, "unit": "ng/mL"}, {"measurement": "AUC0-inf", "setting": "[1]; rat, Plasma, read-out: AUC0-inf", "value": 538, "unit": "ng·h/mL"}, {"measurement": "MRT inf", "setting": "[1]; rat, Plasma", "value": 5.1, "unit": "h"}, {"measurement": "MRT last", "setting": "[1]; rat, Plasma", "value": 5.01, "unit": "h"}]}, {"molecule": "C=CC(=O)Nc1cc(Nc2nccc(-c3cn(C)c4ccccc34)n2)c(OC)cc1OCCN(C)C", "note": "[Compound 1]", "values": [{"measurement": "% ILS (life-span increase vs. vehicle)", "setting": "NCI-H1975-Luc cells; [3]", "value": "greater than 100%"}, {"measurement": "inhibition of the kinase domain of the T790M double mutant", "setting": "[2]", "value": "effectively inhibits"}]}]}
